Experiments:
postmenopausal women [1] = assay: Randomized, double blind, placebo controlled study of oral lasofoxifene on joint pain (visual analog scale pain score); assay type: in vivo, human; conditions: 3 months assessment, self-reported VAS 100 mm scale (0 mm=no pain, 100 mm=worst pain)
Description: (§1) The Effects of Oral Administration of (−)-cis-6-phenyl-5-[4-(2-pyrrolidin-1-yl-ethoxy)-phenyl]-5,6,7,8-tetrahydro-naphthalene-2-ol, D-tartrate salt (Iasofoxifene) on Joint Pain: A Randomized, Double Blind, Placebo Controlled Study Subjects: A double blind, randomized, placebo controlled trial of approximately three hundred and seventy five women between the ages of 50 and 74 years of age inclusive, and 1-20 years postmenopausal was carried out. The subjects selected for the study were ambulatory females between the ages of 50 and 74 years of age (inclusive) who gave written informed consent for participation in the study. […] The subject's Screening/Baseline mean L1-L4 lumbar bone mineral density (BMD) of the spine must be less than +2.0 standard deviations and greater than −2.5 standard deviations of age-and sex-matched bone mineral density (Z-score) as determined by standards of the manufacturer of the Dual X-ray Absorptiometer (DXA) used in the determination of that BMD. […] The subjects' endometrial thickness were typically <5 mm as determined by transvaginal ultrasound (TVU) and subjects outside of this criteria were asked to undergo additional baseline evaluation following initial randomization. […]

postmenopausal women [2] = assay: Randomized, double blind, placebo controlled study of oral lasofoxifene on sleep (Sleep Problems subscale of Women's Health Questionnaire); assay type: in vivo, human; conditions: 3 months assessment
Description: The Effects of Oral Administration of (−)-cis-6-phenyl-5-[4-(2-pyrrolidin-1-yl-ethoxy)-phenyl]-5,6,7,8-tetrahydro-naphthalene-2-ol, D-tartrate salt (lasofoxifene) on Sleep: A Randomized, Double Blind, Placebo Controlled Study
as §1, with “Subjects:” for “The Effects of Oral Administration of (−)-cis-6-phenyl-5-[4-(2-pyrrolidin-1-yl-ethoxy)-phenyl]-5,6,7,8-tetrahydro-naphthalene-2-ol, D-tartrate salt (Iasofoxifene) on Joint Pain: A Randomized, Double Blind, Placebo Controlled Study Subjects:”
Assessment Method: Patient self-report recorded on Sleep Problems subscale of standardized questionnaire, Women's Health Questionnaire (WHQ; Hunter, M. 1992. Psychology and Health, 7: 45-54).

Q: With `O=C(O)C(O)C(O)C(=O)O.Oc1ccc2c(c1)CC[C@H](c1ccccc1)[C@@H]2c1ccc(OCCN2CCCC2)cc1` [Lasofoxifene, (−)-cis-6-phenyl-5-[4-(2-pyrrolidin-1-yl-ethoxy)-phenyl]-5,6,7,8-tetrahydro-naphthalene-2-ol, D-tartrate salt] as the compound, how does the “Joint Pain Changes Resulting From Treatment (Mean Change from Baseline)” value (postmenopausal women [1]; lasofoxifene 0.25 mg/day oral) read?
A: −8.16

Q: And the “Joint Pain Changes Resulting From Treatment (Mean Change from Baseline)” value (postmenopausal women [1]; lasofoxifene 1.0 mg/day oral)?
A: 4.52

Q: And the “Improvement in sleep (less sleep disturbance) vs. placebo, in words” value (postmenopausal women [2]; lasofoxifene 0.4 mg treatment group vs. placebo)?
A: statistically significant improvement in sleep

Q: What about the “Mean Change from Baseline (WHQ Sleep Problems subscale)” value (postmenopausal women [2]; lasofoxifene 0.4 mg/day oral, patient self-report) of the same compound?
A: −0.09
